Results as given in US9145377B2, “G-quadruplex stabilising agent” (University College London, priority 2011, dated 2015).

Legend:
HIF-1α mRNA = assay: Reverse transcriptase PCR (qRT-PCR) of HIF-1α transcripts in RCC4 cells; format: cell-based, human; conditions: 4 h, normoxia
Protocol: Total RNA was isolated from approximately 10^7 cells using the RNeasy kit (Qiagen, Crawley, UK) according to the manufacturer's protocol. HIF-1α transcripts were quantified using two-step, quantitative real time PCR (qRTPCR). First-strand cDNA synthesis was performed for each sample with a Protoscript M-MuLV Taq RT-PCR kit (New England Biolabs, MA, USA) using 1 μg total RNA and oligo-dT primers. qPCR was performed using Stratagene Brilliant III SYBR Green master mix in a Stratagene MX-3000P instrument (Agilent, Tex., USA) according to the manufacturer's instructions using 2 ng input cDNA and primers at 300 nM. […] Samples were normalised to β-actin. Differences in PCR efficiency were normalised using relative standard curves of cDNA pooled from all samples. P-values were determined for 2000 randomisations.
Cells were then lysed and RNA was prepared using a Qiagen RNeasy kit. RT PCR was then performed to determine relative levels of HIF-1α mRNA in each sample.

[1] = Solubility limit in aqueous media (dose ranging, sterile dH2O); format: physicochemical; conditions: dissolved in sterile dH2O, intra-peritoneal dose ranging in CD1 mice
Protocol: A dose range assay was performed in female CD1 mice, with an initial mean weight of 25 g (Harlan UK Ltd,).

HSP-90 = assay: Western blotting for HSP-90 in RCC4 and RCC4VHL cells; format: cell-based, human; conditions: CL67 5×IC50, normoxia (20% oxygen)
Description: (§1) A498 human renal, 786-0 human renal, MCF-7 human breast, Mia-Pa-Ca human pancreatic, Panc-1 human pancreatic, and PC-3 human prostate cancer cells were obtained from American Type Culture Collection (Rockville, Md.). Human RCC4 and RCC4/VHL cells were obtained from Professor P. Maxwell (University College London, UK). RCC4 cells lack pVHL therefore express constitutively high levels of HIF-1α. These cells were stably transfected with a wild-type pVHL gene, as previously described. All cells were grown in humidified 95% air, 5% CO2 at 37° C. in Dulbecco's modified Eagle's medium (DMEM), RPMI or MEM medium supplemented with 10% fetal bovine serum (FBS) and 2 mM L-Glutamine according to advice from ATCC (all reagents were obtained from Gibco, Invitrogen, UK). HIF-1α and HIF-2α antibodies were obtained from BD Transduction Labs, AKT antibody was obtained from Cell Signalling Biotechnology, and lamin NC, actin, HIF-1β, HSP-90, and Raf-1 antibodies were from Santa Cruz Biotechnology.
(§2) Western blotting was performed as described previously. Blots were quantified using ImageQuant software (Molecular Dynamics). Nuclear and cytoplasmic extracts were prepared using NE-PER Nuclear and Cytoplasmic Extraction Reagents (Pierce Biotechnology).
(§3) Cells were then lysed and Western blotting was performed. Probing for HSP-90, Raf-1, AKT and actin (as a loading control).

VEGF = VEGF measurement in cell culture medium by ELISA; format: cell-based, human; conditions: RCC4 cells, CL67 5×IC50 or dose indicated, 4 h or time indicated
Protocol: (§4) Culture flasks were incubated for various times at 37° C. in humidified air, 5% CO2 (normoxia) or 1% O2, 5% CO2, 94% N2 (hypoxia) using an InVivo Hypoxia Workstation 400 with a Ruskin hypoxic gas mixer (Biotrace International). After incubation, cells were washed twice with cold PBS equilibrated with the same gas mixture. In some studies, medium was removed at the end of incubation and stored at […] for measurement of vascular endothelial growth factor (VEGF) levels.

HIF-2α = assay: Western blotting for HIF-2α protein in 786-0 cells; format: cell-based, human; conditions: hypoxia (1% oxygen), 4 h dose course
Description: as §1
(§5) Culture flasks were incubated for various times at 37° C. in humidified air, 5% CO2 (normoxia) or 1% O2, 5% CO2, 94% N2 (hypoxia) using an InVivo Hypoxia Workstation 400 with a Ruskin hypoxic gas mixer (Biotrace International). […]
(§6) Western blotting was performed as described previously. Blots were quantified using ImageQuant software (Molecular Dynamics). […]

renal carcinoma cells = assay: Growth inhibition, sulforhodamine B (SRB) assay, 96 h exposure; format: cell-based, human; conditions: normoxia (20% oxygen)
Description: as §1

HIF-1 transactivation = assay: Luciferase reporter assay (hypoxia response element, HRE) in RCC4 cells; format: cell-based, human; conditions: normoxia or hypoxia (1% oxygen), 4 h
Protocol: A pGL3 firefly luciferase reporter plasmid containing the phosphoglycerate kinase hypoxia-responsive element was supplied by Professor P. Maxwell (University College London, UK) [1]. The empty pGL3 control plasmid and the pRL-CMV Renilla luciferase plasmids were obtained from Promega. […] Firefly and Renilla luciferase activities were measured using the Dual Luciferase Reporter Assay System (Promega) according to the manufacturer's instructions.
In FIG. 6(A) RCC4 cells were co-transfected with either a vector expressing luciferase under the control of multiple copies of the hypoxia response element (HRE; kindly donated by G. Mellillo, NCI) or an empty vector control (pGL3) in addition to a vector expressing renilla luciferase (to control for transfection efficiency). […] Luciferase activity was then measured using the Promega Dual Luciferase assay Kit and results are expressed as a percentage of the activity of untreated, normoxic cells.

AKT = assay: Western blotting for AKT in RCC4 and RCC4VHL cells; format: cell-based, human; conditions: CL67 5×IC50, normoxia (20% oxygen)
Description: as §1, §2, §3

HIF-1β = assay: Western blotting for HIF-1β protein; format: cell-based, human; conditions: RCC4 or 786-0 cells, 4 h
Description: as §1, §5, §6

Raf-1 = assay: Western blotting for Raf-1 in RCC4 and RCC4VHL cells; format: cell-based, human; conditions: CL67 5×IC50, normoxia (20% oxygen)
Description: as §1, §2, §3

HIF-1α = assay: Western blotting for HIF-1α protein in RCC4 / RCC4VHL cells; format: cell-based, human
Description: as §1, §4, §2
Cells were then lysed and Western blotting was performed probing for HIF-1α, HIF-2α, HIF-1β, or lamin NC (as a loading control).

With CCN(CC)CC(=O)Nc1cccc(-n2cc(-c3ccc4ccc(-c5cn(-c6cccc(NC(=O)CN(CC)CC)c6)nn5)cc4c3)nn2)c1 [CL67, N,N′-((4,4′-(Naphthalene-2,7-diyl)bis(1H-1,2,3-triazole-4,1-diyl))bis(3,1-phenylene))bis(2-(diethylamino)acetamide)] the “relative expression of HIF-1α mRNA compared to untreated control cells (RT PCR)” value (HIF-1α mRNA) was “inhibits formation of HIF-1α mRNA”, the “solubility limit of the drug in aqueous media” value [1] was 10 mg/kg and the “expression of HSP90 (Western blot)” value (HSP-90) was “No differences”. For the same compound, the melting point was 97 to 99 °C, the “VEGF levels in medium (ELISA)” value (VEGF) was “inhibited” and the “HIF-2α protein level (Western blot)” value (HIF-2α) was “inhibited”. For the same compound, the “sensitivity of renal cancer cells to inhibition of cell growth compared to other cancer cell lines (breast, pancreatic, prostate)” value (renal carcinoma cells) was “enhanced sensitivity”, the “HIF-1 transactivation (HRE luciferase activity)” value (HIF-1 transactivation) was “inhibited” and the “expression of AKT (Western blot)” value (AKT) was “No differences”. For the same compound, the “HIF-1β protein level (Western blot)” value (HIF-1β) was “did not affect”, the “expression of Raf-1 (Western blot)” value (Raf-1) was “No differences” and the “HIF-1α protein (Western blot) in RCC4VHL cells” value (HIF-1α; RCC4VHL cells (stably transfected with pVHL), 0, 1, 5 or 10×IC50, normoxia or hypoxia (1% oxygen)) was “inhibited”. For the same compound, the “HIF-1α protein (Western blot) in RCC4 cells (lacking pVHL)” value (HIF-1α; RCC4 cells, 0, 1, 5 or 10×IC50, normoxia (20% oxygen) or hypoxia (1% oxygen)) was “inhibited” and the “HIF-1α protein level (Western blot)” value (HIF-1α; RCC4 cells, normoxia, 4 h dose course, time course at 5×IC50) was “inhibited”.
